# Structures can show the parent of a compound that is named as a salt. Where two headings read alike, the source gives them in different places.
# Tests used:
# [1] = system: VP-MCC cell lines (WAGA, MKL-1, MKL-2); assay: qHTS cell viability, VP-MCC cell lines as a group (mean AUC, VP.MCC.avg); type: cell-based, human
# WAGA cells (VP-MCC) = assay: qHTS cell viability (CellTiter-Glo, 72 h; primary and follow-up small molecule screen); type: cell-based, human
# MKL-1 cells (VP-MCC) = assay: as above; type: cell-based, human
# [2] = system: MCC cell lines (WAGA, MKL-1, MKL-2, MCC13, MCC26, UISO); assay: qHTS cell viability, all six MCC cell lines as a group (mean AUC, MCC.avg); type: cell-based, human
# MKL-2 cells (VP-MCC) = assay: qHTS cell viability (CellTiter-Glo, 72 h; primary and follow-up small molecule screen); type: cell-based, human
# CRL-7250 cells = assay: qHTS cell viability (CellTiter-Glo, 72 h; primary screen), control cell line; type: cell-based
# NIH-3T3 cells = assay: as above; type: cell-based, mouse
# [3] = system: VN-MCC cell lines (MCC13, MCC26, UISO); assay: qHTS cell viability, VN-MCC cell lines as a group (mean AUC, VN.MCC.avg); type: cell-based, human
# UISO cells (VN-MCC) = assay: qHTS cell viability (CellTiter-Glo, 72 h; primary and follow-up small molecule screen); type: cell-based, human
# [4] = system: control cell lines (HACAT, HEK293T, CRL-7250, NIH-3T3); assay: qHTS cell viability, control cell lines as a group (mean AUC, Control.avg); type: cell-based
# MCC13 cells (VN-MCC) = assay: qHTS cell viability (CellTiter-Glo, 72 h; primary and follow-up small molecule screen); type: cell-based, human
# [5] = system: six MCC cell lines and four control cell lines; assay: qHTS cell viability, all 10 cell lines screened; type: cell-based
# HACAT cells = assay: qHTS cell viability (CellTiter-Glo, 72 h; primary screen), control cell line; type: cell-based, human
# MCC26 cells (VN-MCC) = assay: qHTS cell viability (CellTiter-Glo, 72 h; primary and follow-up small molecule screen); type: cell-based, human
# HEK293T cells = assay: qHTS cell viability (CellTiter-Glo, 72 h; primary screen), control cell line; type: cell-based, human
# [6] = MIPE library, 11-point DRC, sheet S2E
# [7] = MIPE library, 11-point DRC, control cell line, sheet S2E
smiles,measurement,setting,value
CCN(CC)CCNC(=O)c1ccc(NC(C)=O)cc1 [Acecainide hydrochloride],Control-VP-MCC,[1]; Control AUC minus VP-MCC AUC,54.3246
same,VP-MCC_Avg_AUC,"[1]; NPC library, mean AUC of VP-MCC cell lines",424.056
same,Control-VP-MCC,"[1]; NPC library, therapeutic window: Control avg AUC minus VP-MCC avg AUC",54.3246
same,WAGA_AUC,"WAGA cells (VP-MCC); NPC library, qHTS dose-response AUC, WAGA",423.417
same,WAGA_AUC,"WAGA cells (VP-MCC); area under the dose-response curve, WAGA cells, AUC<450 = reduced viability",423.417
same,MKL1_AUC,"MKL-1 cells (VP-MCC); NPC library, qHTS dose-response AUC, MKL1",419.008
same,MKL1_AUC,MKL-1 cells (VP-MCC); {},419.008
same,MCC_Avg_AUC,"[2]; NPC library, mean AUC of all 6 MCC cell lines",421.904
same,MCC_Avg_AUC,"[2]; NPC library, mean AUC of six MCC cell lines",421.904
same,MKL2_AUC,"MKL-2 cells (VP-MCC); NPC library, qHTS dose-response AUC, MKL2",429.744
same,MKL2_AUC,"MKL-2 cells (VP-MCC); area under the dose-response curve, MKL-2 cells, AUC<450 = reduced viability",429.744
same,CRL7250_AUC,"CRL-7250 cells; NPC library, qHTS dose-response AUC, CRL7250 control",485.167
same,CRL7250_AUC,"CRL-7250 cells; area under the dose-response curve, CRL7250 control cells, AUC<450 = reduced viability",485.167
same,NIH3T3_AUC,"NIH-3T3 cells; NPC library, qHTS dose-response AUC, NIH3T3 control",480.581
same,NIH3T3_AUC,"NIH-3T3 cells; area under the dose-response curve, NIH3T3 control cells, AUC<450 = reduced viability",480.581
same,Control-VN-MCC,[3]; Control AUC minus VN-MCC AUC,58.6292
same,VN-MCC_Avg_AUC,"[3]; NPC library, mean AUC of VN-MCC cell lines",419.752
same,Control-VN-MCC,"[3]; NPC library, therapeutic window: Control avg AUC minus VN-MCC avg AUC",58.6293
same,UISO_AUC,"UISO cells (VN-MCC); NPC library, qHTS dose-response AUC, UISO",444.571
same,UISO_AUC,"UISO cells (VN-MCC); area under the dose-response curve, UISO cells, AUC<450 = reduced viability",444.571
same,Control_Avg_AUC,"[4]; NPC library, mean AUC of control cell lines",478.381
same,MCC13_AUC,"MCC13 cells (VN-MCC); NPC library, qHTS dose-response AUC, MCC13",428.813
same,MCC13_AUC,"MCC13 cells (VN-MCC); area under the dose-response curve, MCC13 cells, AUC<450 = reduced viability",428.813
same,Control-MCC,"[5]; NPC library, therapeutic window: Control avg AUC minus MCC avg AUC",56.4769
same,HACAT_AUC,"HACAT cells; NPC library, qHTS dose-response AUC, HACAT control",489.271
same,HACAT_AUC,"HACAT cells; area under the dose-response curve, HACAT control cells, AUC<450 = reduced viability",489.271
same,MCC26_AUC,"MCC26 cells (VN-MCC); NPC library, qHTS dose-response AUC, MCC26",385.871
same,MCC26_AUC,"MCC26 cells (VN-MCC); area under the dose-response curve, MCC26 cells, AUC<450 = reduced viability",385.871
same,HEK293T_AUC,"HEK293T cells; NPC library, qHTS dose-response AUC, HEK293T control",458.505
same,HEK293T_AUC,"HEK293T cells; area under the dose-response curve, HEK293T control cells, AUC<450 = reduced viability",458.505
CN1CCCC(n2nc(Cc3ccc(Cl)cc3)c3ccccc3c2=O)CC1 (stereo not shown) [Azelastine hydrochloride],Control-VP-MCC,"[1]; MIPE library, Control AUC minus VP-MCC AUC (therapeutic window), sheet S2E",149.127
same,VP-MCC_Avg_AUC,"[1]; MIPE library, mean AUC of VP-MCC cell lines, sheet S2E",310.335
same,WAGA_AUC,WAGA cells (VP-MCC); [6],268.398
same,Area under the dose-response curve (AUC) WAGA Replicate 1,"WAGA cells (VP-MCC); follow-up screen, WAGA, replicate 1",515.6
same,Area under the dose-response curve (AUC) WAGA Replicate 2,"WAGA cells (VP-MCC); follow-up screen, WAGA, replicate 2",481.7
same,Area under the dose-response curve (AUC) WAGA Replicate 3,"WAGA cells (VP-MCC); follow-up screen, WAGA, replicate 3",478.9
same,MKL1_AUC,MKL-1 cells (VP-MCC); [6],341.965
same,Area under the dose-response curve (AUC) MKL-1 Replicate 1,"MKL-1 cells (VP-MCC); follow-up screen, MKL-1, replicate 1",494.5
same,Area under the dose-response curve (AUC) MKL-1 Replicate 2,"MKL-1 cells (VP-MCC); follow-up screen, MKL-1, replicate 2",511.5
same,Area under the dose-response curve (AUC) MKL-1 Replicate 3,"MKL-1 cells (VP-MCC); follow-up screen, MKL-1, replicate 3",475.2
same,MCC_Avg_AUC,"[2]; MIPE library, mean AUC of six MCC cell lines, sheet S2E",373.345
same,MKL2_AUC,MKL-2 cells (VP-MCC); [6],320.643
same,Area under the dose-response curve (AUC) MKL-2 Replicate 1,"MKL-2 cells (VP-MCC); follow-up screen, MKL-2, replicate 1",463.4
same,Area under the dose-response curve (AUC) MKL-2 Replicate 2,"MKL-2 cells (VP-MCC); follow-up screen, MKL-2, replicate 2",469.5
same,Area under the dose-response curve (AUC) MKL-2 Replicate 3,"MKL-2 cells (VP-MCC); follow-up screen, MKL-2, replicate 3",473.5
same,CRL7250_AUC,CRL-7250 cells; [7],443.828
same,NIH3T3_AUC,NIH-3T3 cells; [7],471.996
same,Control-VN-MCC,"[3]; MIPE library, Control AUC minus VN-MCC AUC (therapeutic window), sheet S2E",23.1078
same,VN-MCC_Avg_AUC,"[3]; MIPE library, mean AUC of VN-MCC cell lines, sheet S2E",436.354
same,UISO_AUC,UISO cells (VN-MCC); [6],426.293
same,Area under the dose-response curve (AUC) UISO Replicate 1,"UISO cells (VN-MCC); follow-up screen, UISO, replicate 1",472.1
same,Area under the dose-response curve (AUC) UISO Replicate 2,"UISO cells (VN-MCC); follow-up screen, UISO, replicate 2",488.6
same,Area under the dose-response curve (AUC) UISO Replicate 3,"UISO cells (VN-MCC); follow-up screen, UISO, replicate 3",481.1
same,Control_Avg_AUC,"[4]; MIPE library, mean AUC of control cell lines, sheet S2E",459.462
same,MCC13_AUC,MCC13 cells (VN-MCC); [6],451.766
same,Area under the dose-response curve (AUC) MCC13 Replicate 1,"MCC13 cells (VN-MCC); follow-up screen, MCC13, replicate 1",500.3
same,Area under the dose-response curve (AUC) MCC13 Replicate 2,"MCC13 cells (VN-MCC); follow-up screen, MCC13, replicate 2",476.4
same,Area under the dose-response curve (AUC) MCC13 Replicate 3,"MCC13 cells (VN-MCC); follow-up screen, MCC13, replicate 3",479.3
same,Control-MCC,"[5]; MIPE library, Control AUC minus MCC AUC (therapeutic window), sheet S2E",86.1174
same,HACAT_AUC,HACAT cells; [7],463.226
same,MCC26_AUC,MCC26 cells (VN-MCC); [6],431.003
same,Area under the dose-response curve (AUC) MCC26 Replicate 1,"MCC26 cells (VN-MCC); follow-up screen, MCC26, replicate 1",450.4
same,Area under the dose-response curve (AUC) MCC26 Replicate 2,"MCC26 cells (VN-MCC); follow-up screen, MCC26, replicate 2",432.6
same,Area under the dose-response curve (AUC) MCC26 Replicate 3,"MCC26 cells (VN-MCC); follow-up screen, MCC26, replicate 3",475.6
same,HEK293T_AUC,HEK293T cells; [7],458.798
CC[C@H]1C[C@@H]2C[C@H]3c4[nH]c5ccc(OC)cc5c4CCN(C2)[C@@H]13.Cl [Ibogaine hydrochloride],Control-VP-MCC,[1],48.777
same,VP-MCC_Avg_AUC,[1],430.539
same,WAGA_AUC,WAGA cells (VP-MCC),409.341
same,MKL1_AUC,MKL-1 cells (VP-MCC),439.962
same,MCC_Avg_AUC,[2],427.619
same,MKL2_AUC,MKL-2 cells (VP-MCC),442.315
same,CRL7250_AUC,CRL-7250 cells,490.013
same,NIH3T3_AUC,NIH-3T3 cells,484.099
same,Control-VN-MCC,[3],54.6174
same,VN-MCC_Avg_AUC,[3],424.699
same,UISO_AUC,UISO cells (VN-MCC),418.883
same,Control_Avg_AUC,[4],479.316
same,MCC13_AUC,MCC13 cells (VN-MCC),435.55
same,Control-MCC,[5],51.6972
same,HACAT_AUC,HACAT cells,487.75
same,MCC26_AUC,MCC26 cells (VN-MCC),419.663
same,HEK293T_AUC,HEK293T cells,455.404

# — paper PMC11822212, “High-throughput screening identifies Aurora kinase B as a critical therapeutic target for Merkel cell carcinoma” (Nature Communications, 2025)
